Earlier results, collected in US20110038945A1, “Orally ingestable medicament and method for treating a heartburn inducing event or an acid reflux episode in a living human subject” (priority 2009, published 2011).

SMILES: COc1cc(N)c(Cl)cc1C(=O)NC1CCN(CCCOc2ccc(F)cc2)CC1OC (centres unmarked) [cisapride]
- deaths (included in the heart rhythm abnormality reports): more than 80 deaths
- reports of heart rhythm abnormalities (linked to the drug at recall from the U.S. market in 2000): more than 300 reports
